The values that follow come from ChEMBL document CHEMBL4425148, “Cytotoxic prenylated flavones from the stem and root bark of Daphne giraldii” (Bioorg Med Chem Lett, 2016).

One may read the IC50 as the concentration that inhibits the measured activity by half.

Assay [1] concerns HepG2. The assay can be described thus: cells. The conditions noted are these: Homo sapiens, HepG2, 48 h.
The test system of another assay is A549. The assay can be described thus: Cytotoxicity against human A549 cells assessed as reduction in cell growth incubated for 48 hrs by MTT assay. The assay is classed as functional, cell-based. The settings on record: A549, 48 h.
The subject of the next assay is U-251. Nature of the assay: Cytotoxicity against human U251 cells assessed as reduction in cell growth incubated for 48 hrs by MTT assay. The class given is functional, cell-based. The conditions noted are these: U-251, 48 h. (In general: Tetrazolium assays rely on reduction of a dye to a coloured formazan, in cell work by metabolically active cells.)
The test system of another assay is MCF7. Nature of the assay: cells. The settings on record: Homo sapiens, MCF7, 48 h.
Another assay relates to Bcap37. Nature of the assay: Cytotoxicity against human Bcap37 cells assessed as reduction in cell growth incubated for 48 hrs by MTT assay. The assay is classed as functional, cell-based. The conditions noted are these: Bcap37, 48 h.
For assay [2], the system named is HepG2. The assay can be described thus: Induction of apoptosis in human HepG2 cells assessed as late apoptotic cells at 2 uM after 48 hrs by Annexin V-FITC/propidium iodide based flow cytometric analysis (reference value: 3.81 %). The assay is classed as functional.
The subject of assay [3] is HepG2. Nature of the assay: Induction of apoptosis in human HepG2 cells after 48 hrs by Annexin V-FITC/propidium iodide based flow cytometric analysis. The assay is classed as functional, cell-based. For orientation: Flow cytometry measures light scatter and fluorescence of single cells or particles in a stream.
Assay [4] deals with HepG2. The assay can be described thus: Induction of apoptosis in human HepG2 cells assessed as early apoptotic cells at 2 uM after 48 hrs by Annexin V-FITC/propidium iodide based flow cytometric analysis (reference value: 3.33 %). The assay is classed as functional.

Regarding `COc1ccc(-c2cc(=O)c3c(O)c(OC)c(O)cc3o2)cc1OC` [EUPATILIN], the IC50 was 52.6 µM in the assay with HepG2 [1]; greater than 100 µM in the assay on A549; greater than 100 µM in the assay with U-251; 90.1 µM in the assay on MCF7; greater than 100 µM with Bcap37.
On to `COc1c(-c2cc(O)c3c(c2)C=CC(C)(C)O3)oc2c3c(cc(O)c2c1=O)OC(C)(C)[C@@H](O)C3`, for which the Activity in the assay on HepG2 [2] was 14.32%; in the assay with HepG2 [3], “Dose-dependent effect”; in the assay with HepG2 [4], 13.77%. The 50% inhibitory concentration (IC50) with HepG2 [1] came out at 4.26 µM; with A549, 5.39 µM; with U-251 it was 12 µM; in the assay with MCF7 it was 6.98 µM; in the assay with Bcap37, 20.8 µM.
As for `COc1c(-c2cc(O)c3c(c2)C=CC(C)(C)O3)oc2c(CC=C(C)C)c(O)cc(O)c2c1=O`, the IC50 was 36.7 µM in the assay on HepG2 [1]; 66.8 µM in the assay on A549; greater than 100 µM in the assay on U-251; 76.9 µM with MCF7; greater than 100 µM in the assay on Bcap37.
With `CC(C)=CCc1c(-c2ccc(O)cc2O)oc2c3c(cc(O)c2c1=O)OC(C)(C)C=C3` [MORUSIN], the IC50 is 9.3 µM with HepG2 [1]; 24.1 µM with A549; 17.9 µM in the assay with U-251; 11.5 µM in the assay on MCF7; 33.1 µM in the assay with Bcap37.
On the same counts, the results for `CC(C)=CCc1cc([C@@H]2CC(=O)c3ccc(O)cc3O2)c2c(c1O)OC(C)(C)CC2` are greater than 100 µM, 18.4 µM, greater than 100 µM, greater than 100 µM and greater than 100 µM.
As to `O=c1[nH]cc(F)c(=O)[nH]1` [FLUOROURACIL], the IC50 in the assay with HepG2 [1] worked out at 39.7 µM; in the assay with A549, 24.7 µM; in the assay with U-251, 38.7 µM; in the assay with Bcap37, 37.1 µM.
For the molecule `COc1c(-c2ccc(O)c(O)c2)oc2c(CC=C(C)C)c(O)c(CC=C(C)C)c(O)c2c1=O`, the IC50 with HepG2 [1] amounted to 14.1 µM; in the assay on A549, 25 µM; in the assay with U-251 it was 17.3 µM; in the assay with MCF7, 18.8 µM; with Bcap37 it was 45.4 µM.
